Patent US20220306617A1, “SUBSTITUTED 1,3-PHENYL HETEROARYL DERIVATIVES AND THEIR USE IN THE TREATMENT OF DISEASE” (NOVARTIS AG, priority 2019, published 2022)

Target: T1, abc isoform of human TMEM16A channel expressed in CHO cells (Homo sapiens, UniProt Q5XXA6, DEL476-501)
T1 construct: expressed in transfected cells; host or cells: CHO cells, doxycycline-inducible expression under Blasticidin/Zeocin selection
T1 sequence (Q5XXA6 with tags, fused parts or gaps isoform Q5XXA6-5 DEL539-564): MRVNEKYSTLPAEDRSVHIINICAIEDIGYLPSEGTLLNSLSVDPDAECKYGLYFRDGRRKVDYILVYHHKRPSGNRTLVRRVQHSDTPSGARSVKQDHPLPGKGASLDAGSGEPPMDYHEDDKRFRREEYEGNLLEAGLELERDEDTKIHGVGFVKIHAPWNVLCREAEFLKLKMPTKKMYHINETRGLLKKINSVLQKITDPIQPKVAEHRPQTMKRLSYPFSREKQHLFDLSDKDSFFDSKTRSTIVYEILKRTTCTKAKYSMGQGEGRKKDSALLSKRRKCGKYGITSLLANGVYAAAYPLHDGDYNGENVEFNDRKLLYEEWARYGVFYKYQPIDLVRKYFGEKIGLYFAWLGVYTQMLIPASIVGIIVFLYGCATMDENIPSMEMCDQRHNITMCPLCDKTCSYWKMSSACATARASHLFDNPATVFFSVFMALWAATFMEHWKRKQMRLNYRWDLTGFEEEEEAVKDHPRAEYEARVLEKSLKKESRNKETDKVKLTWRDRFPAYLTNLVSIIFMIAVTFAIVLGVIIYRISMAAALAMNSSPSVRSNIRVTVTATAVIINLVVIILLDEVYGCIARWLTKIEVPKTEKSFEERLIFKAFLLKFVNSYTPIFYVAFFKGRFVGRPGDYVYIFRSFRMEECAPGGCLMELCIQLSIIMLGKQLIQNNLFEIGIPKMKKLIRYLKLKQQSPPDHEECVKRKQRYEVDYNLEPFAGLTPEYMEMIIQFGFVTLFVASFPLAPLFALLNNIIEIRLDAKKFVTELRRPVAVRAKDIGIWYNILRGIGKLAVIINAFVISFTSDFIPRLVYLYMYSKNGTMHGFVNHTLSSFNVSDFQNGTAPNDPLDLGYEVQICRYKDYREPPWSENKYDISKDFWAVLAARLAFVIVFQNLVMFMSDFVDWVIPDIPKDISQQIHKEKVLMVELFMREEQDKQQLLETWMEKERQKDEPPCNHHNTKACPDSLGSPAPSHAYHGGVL
Assay: Automated patch clamping (QPatch) assay to measure TMEM16A activity in whole-cell
Format: cell-based
Conditions: for EC50: CHO cells expressing human TMEM16A (abc), whole-cell automated patch clamp, Hill fit, read-out: TMEM16A QPATCH assay EC50 V3 EC50; for Emax: CHO, maximum current at highest dose relative to reference potentiator at maximal concentration (upper limit) and vehicle (lower limit), read-out: TMEM16A QPATCH assay EC50 V3 Assay Window (% TMEM16A max activation)
Outline: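 CHO cells with doxycycline-induced (1 μg/mL, 18-24 h) human TMEM16A abc isoform; QPatch whole-cell recording, hold −70 mV, step +70 mV 1500 ms, then −90 to +70 mV ramp. Compounds in 0.3% DMSO; EC50 by Hill fit; % max activation relative to vehicle baseline and reference potentiator maximum.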

Row | Structure (SMILES) | EC50 [µM] | Emax [%]
1 | CCC(CC)NC(=O)c1cnc(-c2cccc(-c3cc(C(=O)NC(C)(C)CCc4ccccc4)n[nH]3)c2)o1 [Example 3.39, 2-(3-(3-((2-Methyl-4-Phenylbutan-2-Yl)Carbamoyl)-1H-Pyrazol-5-yl)Phenyl)-N-(Pentan-3-Yl)Oxazole-5-Carboxamide] | 0.15 | 98
2 | COC(=O)[C@@H](NC(=O)c1cnc(-c2cccc(-c3nnc(C(=O)N[C@@H](C)C4CC4)[nH]3)c2)o1)C(C)C [Example 12.3, (S)-Methyl 2-(2-(3-(5-(((S)-1-Cyclopropylethyl)Carbamoyl)-4H-1,2,4-Triazol-3-Yl)Phenyl)Oxazole-5-Carboxamido)-3-Methylbutanoate] | 0.22 | 92
3 | CCOC(=O)[C@@H](NC(=O)c1cnc(-c2cccc(-c3cc(C(=O)NC(C4CC4)C4CC4)n(CCCO)n3)c2)o1)C(C)C [Example 4.5, (S)-Ethyl 2-(2-(3-(5-((Dicyclopropylmethyl)Carbamoyl)-1-(3-Hydroxypropyl)-1 H-Pyrazol-3-Yl)Phenyl)Oxazole-5-Carboxamido)-3-Methylbutanoate] | 0.12 | 154
4 | CCOC(=O)[C@@H](NC(=O)c1cnc(-c2cccc(-c3cc(C(=O)NC(C(F)F)C4CC4)[nH]n3)c2)o1)C(C)C (stereo partly drawn) [Example 2.4, (2S)-Ethyl 2-(2-(3-(5-((1-Cyclopropyl-2,2-Difluoroethyl)Carbamoyl)-1H-Pyrazol-3-Yl)Phenyl)Oxazole-5-Carboxamido)-3-Methylbutanoate] | 0.02 | 99
5 | CCC(CC)NC(=O)c1cnc(-c2cccc(-c3cc(C(=O)N[C@H](C(=O)OCc4ccccc4)C(C)C)n[nH]3)c2)o1 [Example 3.3, (S)-Benzyl 3-Methyl-2-(5-(3-(5-(Pentan-3-Ylcarbamoyl)Oxazol-2-Yl)Phenyl)-1 H-Pyrazole-3-Carboxamido)Butanoate] | 0.18 | 133
6 | CCC(CC)NC(=O)c1cc(-c2cccc(-c3ncc(C(=O)NCc4ccc5c(c4)OCO5)o3)c2)[nH]n1 [Example 1.31, N-(Benzo[d][1,3]Dioxol-5-Ylmethyl)-2-(3-(3-(Pentan-3-Ylcarbamoyl)-1 H-Pyrazol-5-yl)Phenyl)Oxazole-5-Carboxamide] | 0.77 | 65

Now from value to compound:

Row | EC50 [µM] | Emax [%] | Structure (SMILES)
7 | 0.69 | 86 | CCC(CC)NC(=O)c1cnc(-c2cccc(-c3cc(C(=O)N[C@@H](C)C(=O)OC)n[nH]3)c2)o1 [Example 3.42, (S)-Methyl 2-(5-(3-(5-(Pentan-3-Ylcarbamoyl)Oxazol-2-Yl)Phenyl)-1H-Pyrazole-3-Carboxamido)Propanoate]
8 | 0.95 | 79 | CCC(CC)NC(=O)c1cnc(-c2cccc(-c3cc(C(=O)N[C@@H](C)[C@@H]4CCCO4)n[nH]3)c2)o1 (single isomer, unassigned) [3.0 (ii)]
9 | 0.04 | 90 | CCC(CC)NC(=O)c1cnc(-c2cccc(-c3cc(C(=O)N[C@@H](C)C4CC4)n[nH]3)c2)o1 [Example 3.25, (S)-2-(3-(3-((1-Cyclopropylethyl)Carbamoyl)-1H-Pyrazol-5-Yl)Phenyl)-N-(Pentan-3-Yl)Oxazole-5-Carboxamide]
10 | 1.1 | 102 | CCOC(=O)[C@@H](NC(=O)c1cnc(-c2cccc(-c3cc(C(=O)NC(CC)CC)n[nH]3)c2)o1)c1ccccc1 [Example 1.36, (S)-Ethyl 2-(2-(3-(3-(Pentan-3-Ylcarbamoyl)-1 H-Pyrazol-5-Yl)Phenyl)Oxazole-5-Carboxamido)-2-Phenylacetate]
11 | 0.56 | 82 | CCC(CC)NC(=O)c1cc(-c2cccc(-c3ncc(C(=O)Nc4cc(C)cc(C)c4)o3)c2)[nH]n1 [Example 1.3]
12 | 0.07 | 90 | CCCC(CCC)NC(=O)c1cnc(-c2cccc(-c3cc(C(=O)NC(CC)CC)n[nH]3)c2)o1 [Example 1.35, N-(Heptan-4-Yl)-2-(3-(3-(Pentan-3-Ylcarbamoyl)-1H-Pyrazol-5-yl)Phenyl)Oxazole-5-Carboxamide]
